Experimental data reported in patent US11958847B1, “Pyrazolidinedione derivatives and their use as PPAR-gamma inhibitors” (KING FAISAL UNIVERSITY, priority 2023, dated 2024).

System: diabetic rats
Experiment: Anti-hyperglycemic activity evaluation, Streptozotocin (STZ) model
Assay type: in vivo, albino rats
Settings: for inhibition in vivo at 50 mg/kg: compound 50 mg/kg oral; for Blood glucose level 5-day / Blood glucose level 10-day: mean ± SEM, n=6
Experimental: Diabetes was experimentally generated in albino rats by intraperitoneal injection of a solution of STZ (60 mg/kg) in sterile normal saline. […] Rats were partitioned into 8 groups consisting of 6 rats in each group (n=6). The control group consisted of the first group of diabetic animals serving as vehicle control and treated orally with carboxymethylcellulose (CMC) (0.5%, 1 ml) alone; Group 2 of diabetic rats was treated with rosiglitazone 100 mg/kg. […] Blood collections were operated by tail vein sampling. The measurements of blood glucose were performed at 0, 5 and 10 days interval. Bayer's Contour TS system was used in order to monitor blood glucose level. In overnight-fasted rats, fasting blood glucose level was measured in all the groups as a base line at 0 time. All blood glucose data were expressed as mean±SEM. The analysis of the data including the variance analysis (ANOVA) and all mean comparisons were accomplished by Tukey-Kramer method. Results are regarded as significant when P<0.01. The anti-hyperglycemic activity (AA) was presented as % AA and computed as follows: % AA=100×[blood glucose level (0-day)−blood glucose level (10-day)]/[blood glucose level (0-day)].

[1] = Rattus norvegicus, 240 h, % AA=100×[glucose (0-day)−glucose (10-day)]/[glucose (0-day)]
[2] = compound 50 mg/kg oral for 7 continuous days

Row | SMILES | inhibition in vivo at 50 mg/kg [1] | Blood glucose level 5-day [2] | Blood glucose level 10-day [2] | inhibition in vivo at 100 mg/kg (Rattus norvegicus, po, 240 h, rosiglitazone 100 mg/kg, % AA=100×[glucose (0-day)−glucose (10-day)]/[glucose (0-day)]) | Blood glucose level 5-day (rosiglitazone 100 mg/kg) | Blood glucose level 10-day (rosiglitazone 100 mg/kg)
1 | O=C(COc1ccc(C=C2C(=O)NNC2=O)cc1)Nc1nc2ccc(Cl)cc2s1 [Compound 1, N-(6-chlorobenzo[d]thiazol-2-yl)-2-(4-((3,5-dioxopyrazolidin-4-ylidene)methyl)phenoxy)acetamide] | 63.5% | 157.5 ± 3.7 mg/dL | 123.9 ± 4.2 mg/dl |  |  | 
2 | O=C(COc1ccc(C=C2C(=O)NNC2=O)cc1)Nc1nc2ccc(C(F)(F)F)cc2s1 [Compound 2, 2-(4-((3,5-dioxopyrazolidin-4-ylidene)methyl)phenoxy)-N-(6-(trifluoromethyl)benzo[d]thiazol-2-yl)acetamide] | 64.3% | 163.7 ± 2.8 mg/dL | 123.4 ± 3.5 mg/dl |  |  | 
3 | O=C(COc1ccc(C=C2C(=O)NNC2=O)cc1)Nc1nc2ccc(OC(F)(F)F)cc2s1 [Compound 3, 2-(4-((3,5-dioxopyrazolidin-4-ylidene)methyl)phenoxy)-N-(6-(trifluoromethoxy)benzo[d]thiazol-2-yl)acetamide] | 59.5% | 172.4 ± 3.4 mg/dL | 141.6 ± 2.8 mg/dl |  |  | 
4 | Cc1cc2nc(NC(=O)COc3ccc(C=C4C(=O)NNC4=O)cc3)sc2cc1Cl [Compound 4, N-(6-chloro-5-methylbenzo[d]thiazol-2-yl)-2-(4-((3,5-dioxopyrazolidin-4-ylidene)methyl)phenoxy)acetamide] | 66.4% | 160.2 ± 4.1 mg/dL | 113.4 ± 2.6 mg/dl |  |  | 
5 | CCc1cc2nc(NC(=O)COc3ccc(C=C4C(=O)NNC4=O)cc3)sc2cc1Cl [Compound 5, N-(6-chloro-5-ethylbenzo[d]thiazol-2-yl)-2-(4-((3,5-dioxopyrazolidin-4-ylidene)methyl)phenoxy)acetamide] | 62.8% | 155.3 ± 3.9 mg/dL | 127.1 ± 3.1 mg/dl |  |  | 
6 | Cc1c(Cl)ccc2nc(NC(=O)COc3ccc(C=C4C(=O)NNC4=O)cc3)sc12 [Compound 6, N-(6-chloro-7-methylbenzo[d]thiazol-2-yl)-2-(4-((3,5-dioxopyrazolidin-4-ylidene)methyl)phenoxy)acetamide] | 58.6% | 161.3 ± 4.5 mg/dL | 143.9 ± 5.3 mg/dl |  |  | 
7 | O=C(COc1ccc(C=C2C(=O)NNC2=O)cc1)Nc1nc2c(Cl)cc(F)cc2s1 [Compound 7, N-(4-chloro-6-fluorobenzo[d]thiazol-2-yl)-2-(4-((3,5-dioxopyrazolidin-4-ylidene)methyl)phenoxy)acetamide] | 66.3% | 174.1 ± 4.2 mg/dL | 115.2 ± 4.2 mg/dl |  |  | 
8 | O=C(CCOc1ccc(C=C2C(=O)NNC2=O)cc1)Nc1nc2ccc(Cl)cc2s1 [Compound 8, N-(6-chlorobenzo[d]thiazol-2-yl)-3-(4-((3,5-dioxopyrazolidin-4-ylidene)methyl)phenoxy)propanamide] | 68.7% | 166.5 ± 3.7 mg/dL | 106.1 ± 5.1 mg/dl |  |  | 
9 | O=C(CCOc1ccc(C=C2C(=O)NNC2=O)cc1)Nc1nc2ccc(C(F)(F)F)cc2s1 [Compound 9, 3-(4-((3,5-dioxopyrazolidin-4-ylidene)methyl)phenoxy)-N-(6-(trifluoromethyl)benzo[d]thiazol-2-yl)propanamide] | 70.1% | 159.6 ± 4.6 mg/dL | 105.4 ± 3.2 mg/dl |  |  | 
10 | O=C(CCOc1ccc(C=C2C(=O)NNC2=O)cc1)Nc1nc2ccc(OC(F)(F)F)cc2s1 [Compound 10, 3-(4-((3,5-dioxopyrazolidin-4-ylidene)methyl)phenoxy)-N-(6-(trifluoromethoxy)benzo[d]thiazol-2-yl)propanamide] | 69.8% | 153.2 ± 4.2 mg/dL | 105.2 ± 4.7 mg/dl |  |  | 
11 | Cc1cc2nc(NC(=O)CCOc3ccc(C=C4C(=O)NNC4=O)cc3)sc2cc1Cl [Compound 11, N-(6-chloro-5-methylbenzo[d]thiazol-2-yl)-3-(4-((3,5-dioxopyrazolidin-4-ylidene)methyl)phenoxy)propanamide] | 68.4% | 168.7 ± 3.4 mg/dL | 107.0 ± 2.4 mg/dl |  |  | 
12 | CCc1cc2nc(NC(=O)CCOc3ccc(C=C4C(=O)NNC4=O)cc3)sc2cc1Cl [Compound 12, N-(6-chloro-5-ethylbenzo[d]thiazol-2-yl)-3-(4-((3,5-dioxopyrazolidin-4-ylidene)methyl)phenoxy)propanamide] | 64.2% | 171.6 ± 5.1 mg/dL | 121.9 ± 3.6 mg/dl |  |  | 
13 | Cc1c(Cl)ccc2nc(NC(=O)CCOc3ccc(C=C4C(=O)NNC4=O)cc3)sc12 [Compound 13, N-(6-chloro-7-methylbenzo[d]thiazol-2-yl)-3-(4-((3,5-dioxopyrazolidin-4-ylidene)methyl)phenoxy)propanamide] | 65.5% | 168.4 ± 4.3 mg/dL | 119.1 ± 4.3 mg/dl |  |  | 
14 | O=C(CCOc1ccc(C=C2C(=O)NNC2=O)cc1)Nc1nc2c(Cl)cc(F)cc2s1 [Compound 14, N-(4-chloro-6-fluorobenzo[d]thiazol-2-yl)-3-(4-((3,5-dioxopyrazolidin-4-ylidene)methyl)phenoxy)propanamide] | 68.9% | 162.5 ± 5.6 mg/dL | 109.6 ± 5.4 mg/dl |  |  | 
15 | CN(CCOc1ccc(CC2SC(=O)NC2=O)cc1)c1ccccn1 (stereo not drawn) [Rosiglitazone, reference compound] |  |  |  | 62% | 162.1 ± 3.8 mg/dL | 129.7 ± 3.7 mg/dl
